In patent publication US20250009694A1, “METHODS AND PHARMACEUTICAL COMPOSITIONS FOR REPAIRING INTESTINAL MUCOSAL” (INSTITUT NATIONAL DE LA SANTÉ ET DE LA RECHERCHE MÉDICALE, priority 2021, published 2025):

Test system: DSS-colitis in WT mice
Test: DSS-induced acute colitis in WT C57BL/6 mice after pre-treatment
Assay type: in vivo, mouse
Settings: CEA alone, Pan alone or coadministration

Compound	influence on DSS-colitis, single or combined administration
CC(C)(CO)[C@@H](O)C(=O)NCCC(=O)O [Pan, 3-[(2R)-(2,4-Dihydroxy-3,3-dimethylbutanoyl)amino]propanoic acid]	delayed colitis development
NCCS [CEA, 2-aminoethanethiol]	poor influence
